SMILES strings stand for the structures. Where two headings read alike, the source gives them in different places.

One test concerns the target T1, human TLR8 (Homo sapiens, UniProt Q9NR97).
T1 construct: host or cells: HEK293
T1 sequence (Q9NR97 27-1041): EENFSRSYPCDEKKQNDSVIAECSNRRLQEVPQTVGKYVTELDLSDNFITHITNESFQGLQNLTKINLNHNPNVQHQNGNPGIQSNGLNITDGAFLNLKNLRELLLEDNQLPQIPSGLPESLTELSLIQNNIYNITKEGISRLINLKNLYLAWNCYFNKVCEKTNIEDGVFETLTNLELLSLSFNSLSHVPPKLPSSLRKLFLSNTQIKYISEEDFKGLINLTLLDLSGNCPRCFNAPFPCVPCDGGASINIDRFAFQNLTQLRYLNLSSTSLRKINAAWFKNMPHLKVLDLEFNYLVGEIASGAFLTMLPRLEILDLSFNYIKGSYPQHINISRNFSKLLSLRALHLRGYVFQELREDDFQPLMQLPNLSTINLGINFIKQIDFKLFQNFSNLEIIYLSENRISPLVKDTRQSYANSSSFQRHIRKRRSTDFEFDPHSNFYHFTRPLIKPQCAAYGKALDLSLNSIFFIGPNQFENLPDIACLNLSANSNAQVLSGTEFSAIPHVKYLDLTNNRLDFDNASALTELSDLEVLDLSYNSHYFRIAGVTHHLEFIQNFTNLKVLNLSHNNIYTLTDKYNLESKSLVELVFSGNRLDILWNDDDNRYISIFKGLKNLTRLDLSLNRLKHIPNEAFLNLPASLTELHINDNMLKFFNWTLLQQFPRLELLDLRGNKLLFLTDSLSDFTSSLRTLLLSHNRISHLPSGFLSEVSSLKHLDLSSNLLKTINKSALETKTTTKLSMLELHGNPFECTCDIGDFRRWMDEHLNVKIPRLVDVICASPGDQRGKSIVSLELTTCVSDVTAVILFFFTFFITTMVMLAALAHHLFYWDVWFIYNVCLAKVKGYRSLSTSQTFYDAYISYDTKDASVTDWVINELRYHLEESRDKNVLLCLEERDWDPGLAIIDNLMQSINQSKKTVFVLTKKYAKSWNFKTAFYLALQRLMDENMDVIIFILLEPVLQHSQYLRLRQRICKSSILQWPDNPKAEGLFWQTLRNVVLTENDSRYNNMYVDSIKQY
Nature of the test: hTLR8 agonist reporter assay in HEK293 cells (NFκB-SEAP). The following applies: for EC50: read-out: hTLR8 ED50. Type of test: cell-based. As to the method:
Assay for hTLR7 and hTLR8 Agonist Activity in HEK-293 Cells
Determination of TLR agonist activity was performed using the HEK293 […]. This assay measures TLR7 and TLR8 selectivity and potency of the compounds tested. HEK293 cells expressing human TLR7 or TLR8 and NFκB responsive Secreted Embryonic Alkaline Phosphatase (SEAP) reporter gene were obtained from InvivoGen (San Diego, Calif.). These cells were maintained in culture media of Dulbecco's Modified Eagle Medium (DMEM) (Invitrogen, Grand Island, N.Y.), 10% Fetal Bovine Serum (FBS) (Sigma, St. Louis, Mo.) and selection antibiotics (Invitrogen, and Invivogen). HEK293 stably transfected with human TLR7 (hTLR7) or human TLR8 (hTLR8) were stimulated for 24 h with aqueous formulations of test compounds and culture supernatants were analyzed for NFκB activation using the colorimetric SEAP detection kit QuantBlue (InvivoGen).
In general terms: Reporter assays use an easily measured gene product as a stand-in for the process of interest.

The test system of test [1] is human peripheral blood mononuclear cells (hPBMCs). The test can be described thus: IFN-γ induction in hPBMCs. The class given is cell-based. The following applies: 24 h. As to the method:
Assays to Measure Cytokine Induction
Test compounds were evaluated for cytokine induction in human peripheral blood mononuclear cells (hPBMCs).
Primary human PBMCs were isolated from fresh blood from healthy donors via Ficoll gradient separation and plated at 0.5×10^6 cells/well in 96-well tissue culture plates (RPMI-1640 plus 10% FBS). hPBMCs were maintained with RPMI-1640 culture media (Invitrogen, Grand Island, N.Y.), antibiotics (Invitrogen) and 10% FBS (Sigma).
Incubation and Assays for IFN-γ, IFN-α and TNF-α
hPBMCs were stimulated for 24 h with aqueous formulations of test compounds. Culture supernatants were analyzed for TNF-α and IFN-γ induction using multiplex kits (FluoroKine multiplex kits from R&D Systems, Minneapolis, Minn.) and for IFN-α induction using human IFN-α VeriKine ELISA kit (Pestka Biomedical Laboratories, Inc., Piscataway, N.J.).

As to `CCCCCCCC/C=C\CCCCCCCC(=O)OC[C@H](COP(=O)(O)OCCOc1ccc2c(c1)nc(N)c1nc(CCCC)n(CCO)c12)OC(=O)CCCCCCC/C=C\CCCCCCCC` [Example 1], the EC50 on human TLR8 (Table 1, FIG. 2, 24 h stimulation, aqueous formulations) was 100 nM; at human TLR8 (Table 2, FIG. 4, another occasion, * = only very low levels of NFKB activation were detected) it was 800 nM; on human TLR8 (Table 3, FIG. 6, another occasion, * = only very low levels of NFKB activation were detected), 590 nM; on human TLR8 (Table 4, FIG. 8, another occasion) it was 710 nM. Also, the “hTLR8 agonist activity, in words” value was “agonist of both TLR7 and TLR8” at human TLR8 (Table 3, FIG. 6); “significantly more potent as an agonist of hTLR7 and hTLR8 than Comparative Example 2” on human TLR8 (text on Table 1, FIG. 2); “more active than Comparative Example 2 as an agonist of hTLR7 and hTLR8” at human TLR8 (text on Table 2, FIG. 4). Besides, the “IFN-γ induction, in words” value in test [1] (FIG. 9) is “more potent than Comparative Example 3 but less potent than Comparative Example 1”; in test [1] (FIG. 11, another occasion), “potent at inducing IFN-γ and each was more potent than Comparative Example 3”.

The record behind these values is patent US11274115B2, “Imidazoquinoline derivatives and their use in therapy” (GLAXOSMITHKLINE BIOLOGICALS SA, priority 2016, dated 2022).
